Results from paper PMC12309613 (Translational Oncology, 2025).

Molecular target: T1, PYCR1 (recombinant human His-PYCR1) (Homo sapiens, UniProt P32322)
T1 sequence (P32322 2-319): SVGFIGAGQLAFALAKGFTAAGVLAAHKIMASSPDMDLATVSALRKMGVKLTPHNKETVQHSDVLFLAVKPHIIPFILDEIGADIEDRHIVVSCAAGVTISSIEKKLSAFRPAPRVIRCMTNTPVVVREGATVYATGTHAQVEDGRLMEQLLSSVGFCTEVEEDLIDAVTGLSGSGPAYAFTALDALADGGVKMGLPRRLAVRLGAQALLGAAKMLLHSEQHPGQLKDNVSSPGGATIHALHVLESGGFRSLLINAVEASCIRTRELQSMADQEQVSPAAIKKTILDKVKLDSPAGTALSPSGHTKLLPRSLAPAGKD
Test: surface plasmon resonance
Format: binding

- Kd: 7.89 µM
Structure (SMILES): Nc1ncnc2c([C@@H]3O[C@H](CO)[C@@H](O)[C@H]3O)c[nH]c12 [9-DAA]
